# Activity calls are given as the source filed them. The rule behind the calls is not given here.
# Assays:
# [1] = Cellular uptake in perinuclear region of cytoplasm in human HeLa cells at 1 uM after 1 hr by fluorescence microscopic analysis; type: ADME, cell-based
# HeLa [2] = assay: Cytotoxicity against human HeLa cells after 24 hrs by XTT assay; type: functional, cell-based
# [3] = Cellular uptake in perinuclear region of cytoplasm in human HeLa cells at 0.5 uM after 10 mins by fluorescence microscopic analysis; type: ADME, cell-based
# [4] = Cellular uptake in human HeLa cell mitochondria at 1 uM by […]-based fluorescence microscopic analysis; type: ADME
# [5] = Cellular uptake in human HeLa cell endoplasmic reticulum at 1 uM by […] staining-based fluorescence microscopic analysis; type: ADME
# HeLa [6] = assay: Cellular uptake in human HeLa cell lysate at 1 uM after 1 hr by fluorescence spectroscopic analysis; type: ADME, cell-based
# [7] = Cellular uptake in perinuclear region of cytoplasm in human HeLa cells at 0.13 to 1 uM after 1 hr by fluorescence microscopic analysis; type: ADME, cell-based
# [8] = Cellular uptake in human HeLa cell golgi complex at 1 uM by BODIPY TR-ceramide-based fluorescence microscopic analysis; type: ADME
# HeLa [9] = assay: Cellular uptake in human HeLa cells at 0.5 uM at 37 degC after 30 mins by fluorescence microscopic analysis; type: ADME, cell-based; conditions: 0.5 h
# HeLa [10] = assay: Cellular uptake in human HeLa cells at 0.5 uM at 4 degC after 30 mins by fluorescence microscopic analysis; type: ADME, cell-based; conditions: 0.5 h
# [11] = Cytotoxicity against human NCI60 cells; type: functional, cell-based
Drug uptake [1],Drug uptake [3],Drug uptake [4],Drug uptake [5],Drug uptake (HeLa [6]),Drug uptake [7],Drug uptake [8],Drug uptake (HeLa [9]),Drug uptake (HeLa [10]),SMILES,inhibition (HeLa [2]),IC50 (HeLa [2]) [nM],IC50 [11] [nM]
Not Active,,,,,,,,,COC(=O)CN(C)c1ccc(S(=O)(=O)N(C)C)c2nonc12,inactive,,
,Active,Not Active,Active,Active,Active,Active,Active,Not Active,COc1ccc(C(=O)O[C@H]2[C@H](O[C@@H]3[C@@H](OC(C)=O)[C@H](O[C@H]4C[C@H]5[C@@H]6CC=C7C[C@@H](O)CC[C@]7(C)[C@H]6CC[C@]5(C)[C@@]4(O)[C@H](C)C(=O)CCC(C)C)OC[C@@H]3O)OC[C@@H](O)[C@@H]2OC(=O)CN(C)c2ccc(S(=O)(=O)N(C)C)c3nonc23)cc1,,5,
,,,,,,,,,COc1ccc(C(=O)O[C@H]2[C@H](O[C@@H]3[C@@H](OC(C)=O)[C@H](O[C@H]4C[C@H]5[C@@H]6CC=C7C[C@@H](O)CC[C@]7(C)[C@H]6CC[C@]5(C)[C@@]4(O)[C@H](C)C(=O)CCC(C)C)OC[C@@H]3O)OC[C@@H](O)[C@@H]2O)cc1,,2.6,0.78
